According to ChEMBL document CHEMBL2429768, “Eco-friendly synthesis and antimicrobial activities of substituted-5-(1H-indol-3-yl)methylene)-2,2-dimethyl-1,3-dioxane-4,6-dione derivatives” (2013):
≈ marks a conversion by molar mass, not a printed value.

What was measured:
Format in all cases: functional
[1] = tested on: Aspergillus niger; test: Antifungal activity against Aspergillus niger at 200 ug/ml after 72 hrs by agar well diffusion method; settings: read-out: DIZ
[2] = tested on: Escherichia coli; test: Antibacterial activity against Escherichia coli ATCC 8739 at 200 ug/ml after 24 hrs by agar well diffusion method; settings: ATCC 8739, 24 h, read-out: DIZ
[3] = tested on: Klebsiella pneumoniae; test: Antibacterial activity against Klebsiella pneumoniae at 500 ug/ml after 24 hrs by agar well diffusion method; settings: read-out: DIZ
[4] = tested on: Fusarium oxysporum; test: Antifungal activity against Fusarium oxysporum at 100 ug/ml after 72 hrs by agar well diffusion method; settings: read-out: DIZ
[5] = tested on: Aspergillus niger; test: Antifungal activity against Aspergillus niger at 100 ug/ml after 72 hrs by agar well diffusion method; settings: read-out: DIZ
[6] = tested on: Fusarium oxysporum; test: Antifungal activity against Fusarium oxysporum after 72 hrs by agar well diffusion method
[7] = tested on: Aspergillus niger; test: Antifungal activity against Aspergillus niger at 500 ug/ml after 72 hrs by agar well diffusion method; settings: read-out: DIZ
[8] = tested on: Aspergillus flavus; test: Antifungal activity against Aspergillus flavus at 50 ug/ml after 72 hrs by agar well diffusion method; settings: read-out: DIZ
[9] = tested on: Rhizoctonia solani; test: Antifungal activity against Rhizoctonia solani at 500 ug/ml after 72 hrs by agar well diffusion method; settings: read-out: DIZ
[10] = tested on: Staphylococcus aureus; test: Antibacterial activity against Staphylococcus aureus ATCC 6538 at 50 ug/ml after 24 hrs by agar well diffusion method; settings: ATCC 6538, 24 h, read-out: DIZ
[11] = tested on: Aspergillus niger; test: Antifungal activity against Aspergillus niger at 300 ug/ml after 72 hrs by agar well diffusion method; settings: read-out: DIZ
[12] = tested on: Escherichia coli; test: Antibacterial activity against Escherichia coli ATCC 8739 at 100 ug/ml after 24 hrs by agar well diffusion method; settings: ATCC 8739, 24 h, read-out: DIZ
[13] = tested on: Rhizoctonia solani; test: Antifungal activity against Rhizoctonia solani at 50 ug/ml after 72 hrs by agar well diffusion method; settings: read-out: DIZ
[14] = tested on: Aspergillus niger; test: Antifungal activity against Aspergillus niger at 50 ug/ml after 72 hrs by agar well diffusion method; settings: read-out: DIZ
[15] = tested on: Fusarium oxysporum; test: Antifungal activity against Fusarium oxysporum at 300 ug/ml after 72 hrs by agar well diffusion method; settings: read-out: DIZ
[16] = tested on: Rhizoctonia solani; test: Antifungal activity against Rhizoctonia solani at 200 ug/ml after 72 hrs by agar well diffusion method; settings: read-out: DIZ
[17] = tested on: Fusarium oxysporum; test: Antifungal activity against Fusarium oxysporum at 500 ug/ml after 72 hrs by agar well diffusion method; settings: read-out: DIZ
[18] = tested on: Staphylococcus aureus; test: Antibacterial activity against Staphylococcus aureus ATCC 6538 at 500 ug/ml after 24 hrs by agar well diffusion method; settings: ATCC 6538, 24 h, read-out: DIZ
[19] = tested on: Klebsiella pneumoniae; test: Antibacterial activity against Klebsiella pneumoniae at 300 ug/ml after 24 hrs by agar well diffusion method; settings: read-out: DIZ
[20] = tested on: Fusarium oxysporum; test: Antifungal activity against Fusarium oxysporum at 50 ug/ml after 72 hrs by agar well diffusion method; settings: read-out: DIZ
[21] = tested on: Aspergillus flavus; test: Antifungal activity against Aspergillus flavus at 200 ug/ml after 72 hrs by agar well diffusion method; settings: read-out: DIZ
[22] = tested on: Bacillus subtilis; test: Antibacterial activity against Bacillus subtilis at 300 ug/ml after 24 hrs by agar well diffusion method; settings: read-out: DIZ
[23] = tested on: Aspergillus niger; test: Antifungal activity against Aspergillus niger after 72 hrs by agar well diffusion method
[24] = tested on: Staphylococcus aureus; test: Antibacterial activity against Staphylococcus aureus ATCC 6538 at 300 ug/ml after 24 hrs by agar well diffusion method; settings: ATCC 6538, 24 h, read-out: DIZ
[25] = tested on: Bacillus subtilis; test: Antibacterial activity against Bacillus subtilis at 500 ug/ml after 24 hrs by agar well diffusion method; settings: read-out: DIZ
[26] = tested on: Aspergillus flavus; test: Antifungal activity against Aspergillus flavus after 72 hrs by agar well diffusion method
[27] = tested on: Klebsiella pneumoniae; test: Antibacterial activity against Klebsiella pneumoniae at 100 ug/ml after 24 hrs by agar well diffusion method; settings: read-out: DIZ
[28] = tested on: Escherichia coli; test: Antibacterial activity against Escherichia coli ATCC 8739 at 50 ug/ml after 24 hrs by agar well diffusion method; settings: ATCC 8739, 24 h, read-out: DIZ
[29] = tested on: Rhizoctonia solani; test: Antifungal activity against Rhizoctonia solani at 300 ug/ml after 72 hrs by agar well diffusion method; settings: read-out: DIZ
[30] = tested on: Bacillus subtilis; test: Antibacterial activity against Bacillus subtilis after 24 hrs by agar well diffusion method
[31] = tested on: Rhizoctonia solani; test: Antifungal activity against Rhizoctonia solani after 72 hrs by agar well diffusion method
[32] = tested on: Fusarium oxysporum; test: Antifungal activity against Fusarium oxysporum at 200 ug/ml after 72 hrs by agar well diffusion method; settings: read-out: DIZ
[33] = tested on: Aspergillus flavus; test: Antifungal activity against Aspergillus flavus at 300 ug/ml after 72 hrs by agar well diffusion method; settings: read-out: DIZ
[34] = tested on: Klebsiella pneumoniae; test: Antibacterial activity against Klebsiella pneumoniae after 24 hrs by agar well diffusion method
[35] = tested on: Aspergillus flavus; test: Antifungal activity against Aspergillus flavus at 500 ug/ml after 72 hrs by agar well diffusion method; settings: read-out: DIZ
[36] = tested on: Staphylococcus aureus; test: Antibacterial activity against Staphylococcus aureus ATCC 6538 after 24 hrs by agar well diffusion method; settings: ATCC 6538, 24 h
[37] = tested on: Aspergillus flavus; test: Antifungal activity against Aspergillus flavus at 100 ug/ml after 72 hrs by agar well diffusion method; settings: read-out: DIZ
[38] = tested on: Escherichia coli; test: Antibacterial activity against Escherichia coli ATCC 8739 at 300 ug/ml after 24 hrs by agar well diffusion method; settings: ATCC 8739, 24 h, read-out: DIZ
[39] = tested on: Staphylococcus aureus; test: Antibacterial activity against Staphylococcus aureus ATCC 6538 at 200 ug/ml after 24 hrs by agar well diffusion method; settings: ATCC 6538, 24 h, read-out: DIZ
[40] = tested on: Bacillus subtilis; test: Antibacterial activity against Bacillus subtilis at 50 ug/ml after 24 hrs by agar well diffusion method; settings: read-out: DIZ
[41] = tested on: Rhizoctonia solani; test: Antifungal activity against Rhizoctonia solani at 100 ug/ml after 72 hrs by agar well diffusion method; settings: read-out: DIZ
[42] = tested on: Bacillus subtilis; test: Antibacterial activity against Bacillus subtilis at 200 ug/ml after 24 hrs by agar well diffusion method; settings: read-out: DIZ
[43] = tested on: Klebsiella pneumoniae; test: Antibacterial activity against Klebsiella pneumoniae at 50 ug/ml after 24 hrs by agar well diffusion method; settings: read-out: DIZ
[44] = tested on: Klebsiella pneumoniae; test: Antibacterial activity against Klebsiella pneumoniae at 200 ug/ml after 24 hrs by agar well diffusion method; settings: read-out: DIZ
[45] = tested on: Bacillus subtilis; test: Antibacterial activity against Bacillus subtilis at 100 ug/ml after 24 hrs by agar well diffusion method; settings: read-out: DIZ
[46] = tested on: Escherichia coli; test: Antibacterial activity against Escherichia coli ATCC 8739 after 24 hrs by agar well diffusion method; settings: ATCC 8739, 24 h
[47] = tested on: Escherichia coli; test: Antibacterial activity against Escherichia coli ATCC 8739 at 500 ug/ml after 24 hrs by agar well diffusion method; settings: ATCC 8739, 24 h, read-out: DIZ
[48] = tested on: Staphylococcus aureus; test: Antibacterial activity against Staphylococcus aureus ATCC 6538 at 100 ug/ml after 24 hrs by agar well diffusion method; settings: ATCC 6538, 24 h, read-out: DIZ

## CCn1cc(C=C2C(=O)OC(C)(C)OC2=O)c2cc([N+](=O)[O-])ccc21
[1]
  zone of inhibition at 200 µg/mL: 14 mm
[2]
  zone of inhibition at 200 µg/mL: 15 mm
[3]
  zone of inhibition at 500 µg/mL: 32 mm
[4]
  zone of inhibition at 100 µg/mL: 12 mm
[5]
  zone of inhibition at 100 µg/mL: 10 mm
[6]
  MIC: 35 µg/mL (≈ 102 µM)
[7]
  zone of inhibition at 500 µg/mL: 25 mm
[8]
  zone of inhibition at 50 µg/mL: 4 mm
[9]
  zone of inhibition at 500 µg/mL: 29 mm
[10]
  zone of inhibition at 50 µg/mL: 6 mm
[11]
  zone of inhibition at 300 µg/mL: 18 mm
[12]
  zone of inhibition at 100 µg/mL: 13 mm
[13]
  zone of inhibition at 50 µg/mL: 7 mm
[14]
  zone of inhibition at 50 µg/mL: 6 mm
[15]
  zone of inhibition at 300 µg/mL: 21 mm
[16]
  zone of inhibition at 200 µg/mL: 16 mm
[17]
  zone of inhibition at 500 µg/mL: 29 mm
[18]
  zone of inhibition at 500 µg/mL: 26 mm
[19]
  zone of inhibition at 300 µg/mL: 23 mm
[20]
  zone of inhibition at 50 µg/mL: 7 mm
[21]
  zone of inhibition at 200 µg/mL: 12 mm
[22]
  zone of inhibition at 300 µg/mL: 14 mm
[23]
  MIC: 40 µg/mL (≈ 116 µM)
[24]
  zone of inhibition at 300 µg/mL: 16 mm
[25]
  zone of inhibition at 500 µg/mL: 22 mm
[26]
  MIC: 40 µg/mL (≈ 116 µM)
[27]
  zone of inhibition at 100 µg/mL: 14 mm
[28]
  zone of inhibition at 50 µg/mL: 8 mm
[29]
  zone of inhibition at 300 µg/mL: 21 mm
[30]
  MIC: 30 µg/mL (≈ 87.1 µM)
[31]
  MIC: 35 µg/mL (≈ 102 µM)
[32]
  zone of inhibition at 200 µg/mL: 16 mm
[33]
  zone of inhibition at 300 µg/mL: 15 mm
[34]
  MIC: 15 µg/mL (≈ 43.6 µM)
[35]
  zone of inhibition at 500 µg/mL: 23 mm
[36]
  MIC: 25 µg/mL (≈ 72.6 µM)
[37]
  zone of inhibition at 100 µg/mL: 9 mm
[38]
  zone of inhibition at 300 µg/mL: 20 mm
[39]
  zone of inhibition at 200 µg/mL: 13 mm
[40]
  zone of inhibition at 50 µg/mL: 4 mm
[41]
  zone of inhibition at 100 µg/mL: 12 mm
[42]
  zone of inhibition at 200 µg/mL: 11 mm
[43]
  zone of inhibition at 50 µg/mL: 9 mm
[44]
  zone of inhibition at 200 µg/mL: 18 mm
[45]
  zone of inhibition at 100 µg/mL: 9 mm
[46]
  MIC: 15 µg/mL (≈ 43.6 µM)
[47]
  zone of inhibition at 500 µg/mL: 31 mm
[48]
  zone of inhibition at 100 µg/mL: 10 mm

## CC1(C)OC(=O)C(=Cc2c[nH]c3ccc(Br)cc23)C(=O)O1
[1]
  zone of inhibition at 200 µg/mL: 15 mm
[2]
  zone of inhibition at 200 µg/mL: 16 mm
[3]
  zone of inhibition at 500 µg/mL: 34 mm
[4]
  zone of inhibition at 100 µg/mL: 14 mm
[5]
  zone of inhibition at 100 µg/mL: 11 mm
[6]
  MIC: 25 µg/mL (≈ 71.4 µM)
[7]
  zone of inhibition at 500 µg/mL: 26 mm
[8]
  zone of inhibition at 50 µg/mL: 5 mm
[9]
  zone of inhibition at 500 µg/mL: 32 mm
[10]
  zone of inhibition at 50 µg/mL: 8 mm
[11]
  zone of inhibition at 300 µg/mL: 19 mm
[12]
  zone of inhibition at 100 µg/mL: 15.5 mm
[13]
  zone of inhibition at 50 µg/mL: 10 mm
[14]
  zone of inhibition at 50 µg/mL: 7 mm
[15]
  zone of inhibition at 300 µg/mL: 21 mm
[16]
  zone of inhibition at 200 µg/mL: 19 mm
[17]
  zone of inhibition at 500 µg/mL: 31 mm
[18]
  zone of inhibition at 500 µg/mL: 27 mm
[19]
  zone of inhibition at 300 µg/mL: 25 mm
[20]
  zone of inhibition at 50 µg/mL: 10 mm
[21]
  zone of inhibition at 200 µg/mL: 13 mm
[22]
  zone of inhibition at 300 µg/mL: 17 mm
[23]
  MIC: 30 µg/mL (≈ 85.7 µM)
[24]
  zone of inhibition at 300 µg/mL: 19 mm
[25]
  zone of inhibition at 500 µg/mL: 25 mm
[26]
  MIC: 35 µg/mL (≈ 100 µM)
[27]
  zone of inhibition at 100 µg/mL: 16 mm
[28]
  zone of inhibition at 50 µg/mL: 10.4 mm
[29]
  zone of inhibition at 300 µg/mL: 24 mm
[30]
  MIC: 20 µg/mL (≈ 57.1 µM)
[31]
  MIC: 25 µg/mL (≈ 71.4 µM)
[32]
  zone of inhibition at 200 µg/mL: 17 mm
[33]
  zone of inhibition at 300 µg/mL: 17 mm
[34]
  MIC: 10 µg/mL (≈ 28.6 µM)
[35]
  zone of inhibition at 500 µg/mL: 24 mm
[36]
  MIC: 20 µg/mL (≈ 57.1 µM)
[37]
  zone of inhibition at 100 µg/mL: 10 mm
[38]
  zone of inhibition at 300 µg/mL: 23 mm
[39]
  zone of inhibition at 200 µg/mL: 15 mm
[40]
  zone of inhibition at 50 µg/mL: 7 mm
[41]
  zone of inhibition at 100 µg/mL: 15 mm
[42]
  zone of inhibition at 200 µg/mL: 13 mm
[43]
  zone of inhibition at 50 µg/mL: 11 mm
[44]
  zone of inhibition at 200 µg/mL: 20 mm
[45]
  zone of inhibition at 100 µg/mL: 11.5 mm
[46]
  MIC: 10 µg/mL (≈ 28.6 µM)
[47]
  zone of inhibition at 500 µg/mL: 32 mm
[48]
  zone of inhibition at 100 µg/mL: 12 mm
